Measured values as given in patent US20250206761A1, “HALOINDOLE MACROCYCLIC COMPOUNDS FOR THE TREATMENT OF CANCER” (Hoffmann-La Roche Inc., priority 2022, published 2025).

How the values were obtained:
[1] = system: AGS (ATCC-CRL-1739) cells; test: Cell viability assay, G12D (AGS); type: cell-based, human; settings: Homo sapiens, KRAS cell viability, 72 hrs, Cell Counting Kit-8
Method in brief: (§1)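 Cells seeded at 5,000/well (NCI-H358) or 2,000/well (AGS, SW620), treated next day at 0.5% final DMSO for 72 h. Viability read by CCK-8 (OD450 minus OD650) after 2 h; IC50 from 4-parameter sigmoidal fit.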

[2] = target: KRAS G12D binding to BRAF (Homo sapiens (Human), UniProt P01116+P62937, G12D); test: KRAS-BRAF with CYPA (500 nM) interaction assay (TR-FRET), G12D; type: biochemical
[3] = system: phosphorylation of ERK, KRAS G12C in NCJ-H358 cells; test: pERK inhibition assay, KRAS G12C; type: cell-based, human; settings: Homo sapiens, 4 hours
Method in brief: (§2)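 Seeding densities differed per line: 30,000/well for NCJ-H358 and SW620, 20,000/well for AGS, all in RPMI-1640 plus 10% FBS. After attachment overnight, compound was applied for 4 h. Phospho-ERK was then quantified by in-cell ELISA (OD450), with IC50 fitted sigmoidally.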

[4] = system: NCI-H358 (ATCC-CRL5807) cells; test: Cell viability assay, G12C (NCI-H358); type: cell-based, human; settings: Homo sapiens; KRAS cell viability, NCI-H358, 72 hrs, Cell Counting Kit-8
Method in brief: as §1

SW620 (ATCC-CCL-227) = test: Cell viability assay, G12V (SW620); type: cell-based, human; settings: Homo sapiens, SW-620; KRAS cell viability, SW620, 72 hrs, Cell Counting Kit-8
Method in brief: as §1

[5] = system: phosphorylation of ERK, KRAS G12V in SW620; test: pERK inhibition assay, KRAS G12V; type: cell-based, human; settings: Homo sapiens, SW-620, SW620, 4 hours
Method in brief: as §2

Chain of KRAS G12D binding to BRAF (P01116-2 other isoform, or with tags, fused parts or gaps G12D): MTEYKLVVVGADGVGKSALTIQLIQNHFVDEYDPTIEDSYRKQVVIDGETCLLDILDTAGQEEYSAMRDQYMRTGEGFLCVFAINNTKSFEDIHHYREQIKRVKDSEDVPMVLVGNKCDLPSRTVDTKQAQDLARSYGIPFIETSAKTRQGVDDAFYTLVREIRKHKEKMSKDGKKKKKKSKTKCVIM
Chain of KRAS G12D binding to BRAF (P62937 whole entry): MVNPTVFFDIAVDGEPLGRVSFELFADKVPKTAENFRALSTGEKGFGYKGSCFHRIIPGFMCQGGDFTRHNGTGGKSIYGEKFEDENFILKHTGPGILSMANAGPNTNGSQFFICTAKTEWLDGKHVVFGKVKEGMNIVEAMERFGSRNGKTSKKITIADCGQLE

`CO[C@@H](C)c1ncc(N2CCN(C)CC2)cc1-c1c2c3cc(c(F)cc3n1CC(F)(F)F)-c1cc(O)cc(c1)C[C@H](NC(=O)[C@H](C(C)C)N(C)C(=O)[C@H]1CCN(C(=O)[C@H](F)Cl)C1)C(=O)N1CCC[C@H](N1)C(=O)OCC(C)(C)C2` (atropisomer, axis not shown; (M)) [Example 8, (3S)-1-[(2R)-2-chloro-2-fluoro-acetyl]-N-[(1S)-1-[[(8S,14S)-25-fluoro-4-hydroxy-(21M)-21-[2-[(1S)-1-methoxyethyl]-5-(4-methylpiperazin-1-yl)-3-pyridyl]-18,18-dimethyl-9,15-dioxo-22-(2,2,2-trifluoroethyl)-16-oxa-10,22,28-triazapentacyclo[18.5.2.1^2,6.1^10,14.0^23,27]nonacosa-1(26),2,4,6(29),20,23(27),24-heptaen-8-yl]carbamoyl]-2-methyl-propyl]-N-methyl-pyrrolidine-3-carboxamide] gave an IC50 [1] of 1560 nM, an IC50 [2] of 85 nM and an IC50 [3] of 2 nM. The IC50 [4] was 3 nM, the IC50 (SW620 (ATCC-CCL-227)) was 175 nM and the IC50 [5] was 127 nM.
`CO[C@@H](C)c1ncc(N2CCN(C)CC2)cc1-c1c2c3cc(c(C)cc3n1CC(F)(F)F)-c1csc(n1)C[C@H](NC(=O)[C@H](C(C)C)N(C)C(=O)C1(F)CCN(C(=O)[C@H](F)Cl)CC1)C(=O)N1CCC[C@H](N1)C(=O)OCC(C)(C)C2` (atropisomer, axis not shown; (M)) [Example 9, 1-[(2R)-2-chloro-2-fluoro-acetyl]-4-fluoro-N-[(1S)-1-[[(7S,13S)-(20M)-20-[2-[(1S)-1-methoxyethyl]-5-(4-methylpiperazin-1-yl)-3-pyridyl]-17,17,24-trimethyl-8,14-dioxo-21-(2,2,2-trifluoroethyl)-15-oxa-4-thia-9,21,27,28-tetrazapentacyclo[17.5.2.1^2,5.1^9,13.0^22,26]octacosa-1(25),2,5(28),19,22(26),23-hexaen-7-yl]carbamoyl]-2-methyl-propyl]-N-methyl-piperidine-4-carboxamide] was tested, and the IC50 [1] was 505 nM, the IC50 [2] was over 10000 nM and the IC50 [3] was 3 nM. The IC50 [4] was 7 nM, the IC50 (SW620 (ATCC-CCL-227)) was 28 nM and the IC50 [5] was 22 nM.
With `CO[C@@H](C)c1ncc(N2CCN(C)CC2)cc1-c1c2c3cc(c(F)cc3n1CC(F)(F)F)-c1csc(n1)C[C@H](NC(=O)[C@H](C(C)C)N(C)C(=O)C1(F)CCN(C(=O)[C@H](F)Cl)CC1)C(=O)N1CCC[C@H](N1)C(=O)OCC(C)(C)C2` (atropisomer, axis not shown; (M)) [Example 10, 1-[(2R)-2-chloro-2-fluoro-acetyl]-4-fluoro-N-[(1S)-1-[[(7S,13S)-24-fluoro-(20M)-20-[2-[(1S)-1-methoxyethyl]-5-(4-methylpiperazin-1-yl)-3-pyridyl]-17,17-dimethyl-8,14-dioxo-21-(2,2,2-trifluoroethyl)-15-oxa-4-thia-9,21,27,28-tetrazapentacyclo[17.5.2.1^2,5.1^9,13.0^22,26]octacosa-1(25),2,5(28),19,22(26),23-hexaen-7-yl]carbamoyl]-2-methyl-propyl]-N-methyl-piperidine-4-carboxamide] the IC50 [1] was 105 nM, the IC50 [2] was 964 nM and the IC50 [3] was under 1 nM. The IC50 [4] was under 1 nM, the IC50 (SW620 (ATCC-CCL-227)) was 8 nM and the IC50 [5] was 6 nM.
In the case of `CC(C)[C@@H](C(=O)N[C@H]1Cc2cc(O)cc(c2)-c2ccc3c(C(C)(C)C#N)cn(c3c2)CC(C)(C)COC(=O)[C@@H]2CCCN(N2)C1=O)N1CCCC2(CCN(C(=O)CCl)C2)C1=O` (stereo partly shown) [RM351, reference compound], the IC50 [1] is reported as 2100 nM, the IC50 [2] is reported as over 10000 nM and the IC50 [3] is reported as 356 nM. For the same molecule, the IC50 [5] was over 10000 nM.
